{"source": "paper PMC6886798", "about": "“Expression of myeloid Src-family kinases is associated with poor prognosis in AML and influences Flt3-ITD kinase inhibitor acquired resistance” (PLoS ONE, 2019)", "assay_in_all_cases": "KINOMEscan", "type_in_all_cases": "binding", "details_in_all_cases": "1.0 µM", "key": {"AKT3": {"target": "T1, AKT3 (Homo sapiens, UniProt Q9Y243)", "T1 construct": "purchased Eurofins/DiscoverX KINOMEscan scanMAX", "method": "(§1) Kinase retention to the immobilized ligand is then measured using quantitative real-time PCR for each kinase-specific DNA barcode."}, "BIKE": {"target": "T2, BIKE (Homo sapiens, UniProt Q9NSY1)", "T2 construct": "purchased Eurofins/DiscoverX KINOMEscan scanMAX", "method": "as §1"}, "BRAF": {"target": "T3, BRAF (Homo sapiens, UniProt P15056)", "T3 construct": "purchased Eurofins/DiscoverX KINOMEscan scanMAX", "method": "as §1"}, "CIT": {"target": "T4, CIT (Homo sapiens, UniProt O14578)", "T4 construct": "purchased Eurofins/DiscoverX KINOMEscan scanMAX", "method": "as §1"}, "CTK": {"target": "T5, CTK (Homo sapiens, UniProt P42679)", "T5 construct": "purchased Eurofins/DiscoverX KINOMEscan scanMAX", "method": "as §1"}, "DCAMKL3": {"target": "T6, DCAMKL3 (Homo sapiens, UniProt Q9C098)", "T6 construct": "purchased Eurofins/DiscoverX KINOMEscan scanMAX", "method": "as §1"}, "DYRK1B": {"target": "T7, DYRK1B (Homo sapiens, UniProt Q9Y463)", "T7 construct": "purchased Eurofins/DiscoverX KINOMEscan scanMAX", "method": "as §1"}, "EPHB2": {"target": "T8, EPHB2 (Homo sapiens, UniProt P29323)", "T8 construct": "purchased Eurofins/DiscoverX KINOMEscan scanMAX", "method": "as §1"}, "ERBB2": {"target": "T9, ERBB2 (Homo sapiens, UniProt P04626)", "T9 construct": "purchased Eurofins/DiscoverX KINOMEscan scanMAX", "T9 sequence (P04626 23-1255)": "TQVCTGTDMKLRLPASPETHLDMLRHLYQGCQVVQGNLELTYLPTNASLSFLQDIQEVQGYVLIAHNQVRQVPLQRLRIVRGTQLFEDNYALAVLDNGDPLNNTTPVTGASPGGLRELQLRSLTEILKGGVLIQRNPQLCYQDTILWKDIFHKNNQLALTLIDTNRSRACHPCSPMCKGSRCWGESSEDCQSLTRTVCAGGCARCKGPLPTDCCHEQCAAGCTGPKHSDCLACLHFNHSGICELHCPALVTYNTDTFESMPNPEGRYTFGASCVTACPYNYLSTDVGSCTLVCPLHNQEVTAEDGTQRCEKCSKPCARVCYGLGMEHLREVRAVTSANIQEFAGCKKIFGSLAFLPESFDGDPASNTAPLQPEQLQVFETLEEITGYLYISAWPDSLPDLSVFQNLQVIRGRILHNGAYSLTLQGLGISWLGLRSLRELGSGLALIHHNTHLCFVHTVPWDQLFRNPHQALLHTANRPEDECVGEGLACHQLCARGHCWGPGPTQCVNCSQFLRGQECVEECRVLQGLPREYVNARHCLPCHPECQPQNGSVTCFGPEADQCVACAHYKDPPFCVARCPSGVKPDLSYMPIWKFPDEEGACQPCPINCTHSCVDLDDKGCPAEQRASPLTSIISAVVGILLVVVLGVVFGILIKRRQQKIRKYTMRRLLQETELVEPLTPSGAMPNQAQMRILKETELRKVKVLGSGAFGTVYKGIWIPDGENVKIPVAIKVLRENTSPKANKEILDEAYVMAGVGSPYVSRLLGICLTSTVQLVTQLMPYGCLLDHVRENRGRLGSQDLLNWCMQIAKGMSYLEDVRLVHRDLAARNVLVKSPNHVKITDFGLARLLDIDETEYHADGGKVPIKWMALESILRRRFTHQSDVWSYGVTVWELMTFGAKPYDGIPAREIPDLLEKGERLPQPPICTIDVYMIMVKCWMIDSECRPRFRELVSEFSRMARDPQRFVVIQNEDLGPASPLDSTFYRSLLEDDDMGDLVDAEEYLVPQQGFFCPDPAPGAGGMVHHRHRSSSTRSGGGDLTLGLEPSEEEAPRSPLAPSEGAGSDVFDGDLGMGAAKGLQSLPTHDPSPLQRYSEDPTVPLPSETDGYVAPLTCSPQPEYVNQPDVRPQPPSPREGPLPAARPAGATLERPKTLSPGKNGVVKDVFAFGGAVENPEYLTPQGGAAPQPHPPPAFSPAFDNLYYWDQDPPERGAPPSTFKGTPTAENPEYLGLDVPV", "method": "as §1"}, "FGFR1": {"target": "T10, FGFR1 (Homo sapiens, UniProt P11362)", "T10 construct": "purchased Eurofins/DiscoverX KINOMEscan scanMAX", "method": "as §1"}, "FLT3(N841I)": {"target": "T11, FLT3(N841I) (Homo sapiens, UniProt P36888, N841I)", "T11 construct": "purchased Eurofins/DiscoverX KINOMEscan scanMAX", "method": "as §1"}, "FLT4": {"target": "T12, FLT4 (Homo sapiens, UniProt P35916)", "T12 construct": "purchased Eurofins/DiscoverX KINOMEscan scanMAX", "T12 sequence (P35916 25-1363)": "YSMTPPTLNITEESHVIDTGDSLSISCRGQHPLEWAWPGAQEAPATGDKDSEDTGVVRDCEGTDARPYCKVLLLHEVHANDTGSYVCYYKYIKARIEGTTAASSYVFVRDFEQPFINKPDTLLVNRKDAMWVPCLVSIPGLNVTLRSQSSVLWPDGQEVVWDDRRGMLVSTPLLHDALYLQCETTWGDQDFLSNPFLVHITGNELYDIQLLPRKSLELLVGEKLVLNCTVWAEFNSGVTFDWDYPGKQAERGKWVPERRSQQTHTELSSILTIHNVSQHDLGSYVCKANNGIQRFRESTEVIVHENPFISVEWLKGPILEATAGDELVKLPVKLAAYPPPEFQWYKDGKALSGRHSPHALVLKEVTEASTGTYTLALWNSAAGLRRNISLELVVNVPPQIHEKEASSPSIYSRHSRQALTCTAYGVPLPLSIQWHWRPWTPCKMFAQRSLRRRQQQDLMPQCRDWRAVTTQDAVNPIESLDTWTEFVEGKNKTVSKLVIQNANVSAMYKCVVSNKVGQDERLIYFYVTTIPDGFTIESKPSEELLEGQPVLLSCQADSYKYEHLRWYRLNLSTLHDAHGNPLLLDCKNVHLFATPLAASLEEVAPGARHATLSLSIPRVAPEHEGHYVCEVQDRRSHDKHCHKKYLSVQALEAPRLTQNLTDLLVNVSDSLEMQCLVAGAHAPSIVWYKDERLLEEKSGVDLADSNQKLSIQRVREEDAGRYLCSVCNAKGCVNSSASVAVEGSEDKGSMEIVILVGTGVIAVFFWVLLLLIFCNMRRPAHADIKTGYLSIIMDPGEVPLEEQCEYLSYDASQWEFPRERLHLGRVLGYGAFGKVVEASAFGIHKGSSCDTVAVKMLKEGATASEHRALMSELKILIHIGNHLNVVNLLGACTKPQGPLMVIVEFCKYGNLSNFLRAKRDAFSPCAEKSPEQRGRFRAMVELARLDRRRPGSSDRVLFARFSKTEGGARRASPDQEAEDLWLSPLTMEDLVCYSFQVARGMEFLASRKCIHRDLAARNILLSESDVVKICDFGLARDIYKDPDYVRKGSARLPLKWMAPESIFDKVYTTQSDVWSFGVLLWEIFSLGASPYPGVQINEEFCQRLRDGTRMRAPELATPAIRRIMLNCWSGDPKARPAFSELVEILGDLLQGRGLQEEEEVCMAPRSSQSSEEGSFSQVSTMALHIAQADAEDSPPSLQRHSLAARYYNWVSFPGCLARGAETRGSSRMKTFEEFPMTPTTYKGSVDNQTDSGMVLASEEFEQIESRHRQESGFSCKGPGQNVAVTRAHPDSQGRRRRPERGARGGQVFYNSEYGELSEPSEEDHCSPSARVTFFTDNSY", "method": "as §1"}, "IKK-beta": {"target": "T13, IKK-beta (Homo sapiens, UniProt O14920)", "T13 construct": "purchased Eurofins/DiscoverX KINOMEscan scanMAX", "method": "as §1"}, "IKK-epsilon": {"target": "T14, IKK-epsilon (Homo sapiens, UniProt Q14164)", "T14 construct": "purchased Eurofins/DiscoverX KINOMEscan scanMAX", "method": "as §1"}, "ITK": {"target": "T15, ITK (Homo sapiens, UniProt Q08881)", "T15 construct": "purchased Eurofins/DiscoverX KINOMEscan scanMAX", "method": "as §1"}, "KIT": {"target": "T16, KIT (Homo sapiens, UniProt P10721)", "T16 construct": "purchased Eurofins/DiscoverX KINOMEscan scanMAX", "T16 sequence (P10721 26-976)": "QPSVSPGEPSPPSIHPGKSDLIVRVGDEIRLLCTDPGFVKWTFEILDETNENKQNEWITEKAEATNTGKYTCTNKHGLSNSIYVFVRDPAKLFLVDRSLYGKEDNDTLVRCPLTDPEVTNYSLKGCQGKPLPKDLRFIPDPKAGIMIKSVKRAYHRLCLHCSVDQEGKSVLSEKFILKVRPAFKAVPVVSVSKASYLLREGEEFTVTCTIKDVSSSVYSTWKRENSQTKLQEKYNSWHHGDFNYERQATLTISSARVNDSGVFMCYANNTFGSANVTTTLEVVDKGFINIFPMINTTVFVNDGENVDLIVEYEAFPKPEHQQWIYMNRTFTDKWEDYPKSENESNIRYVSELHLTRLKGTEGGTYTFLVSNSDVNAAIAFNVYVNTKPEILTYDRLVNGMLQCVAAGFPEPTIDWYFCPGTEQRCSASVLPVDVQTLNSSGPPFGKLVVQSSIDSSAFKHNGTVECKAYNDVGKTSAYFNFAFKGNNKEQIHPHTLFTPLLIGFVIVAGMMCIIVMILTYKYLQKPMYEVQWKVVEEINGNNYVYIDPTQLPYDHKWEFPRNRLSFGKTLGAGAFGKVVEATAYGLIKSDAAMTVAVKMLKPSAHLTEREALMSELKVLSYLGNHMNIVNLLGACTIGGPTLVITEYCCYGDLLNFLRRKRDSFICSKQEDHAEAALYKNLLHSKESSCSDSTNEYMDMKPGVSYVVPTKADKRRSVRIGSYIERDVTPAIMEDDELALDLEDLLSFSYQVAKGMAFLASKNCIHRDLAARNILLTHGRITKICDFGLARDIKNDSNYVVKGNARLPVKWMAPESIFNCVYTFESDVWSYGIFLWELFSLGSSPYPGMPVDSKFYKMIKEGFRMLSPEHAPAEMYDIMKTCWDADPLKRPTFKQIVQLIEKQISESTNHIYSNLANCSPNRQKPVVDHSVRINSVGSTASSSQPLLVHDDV", "method": "as §1"}, "LATS2": {"target": "T17, LATS2 (Homo sapiens, UniProt Q9NRM7)", "T17 construct": "purchased Eurofins/DiscoverX KINOMEscan scanMAX", "method": "as §1"}, "MAP3K2": {"target": "T18, MAP3K2 (Homo sapiens, UniProt Q9Y2U5)", "T18 construct": "purchased Eurofins/DiscoverX KINOMEscan scanMAX", "method": "as §1"}, "MKNK2": {"target": "T19, MKNK2 (Homo sapiens, UniProt Q9HBH9)", "T19 construct": "purchased Eurofins/DiscoverX KINOMEscan scanMAX", "method": "as §1"}, "MLCK": {"target": "T20, MLCK (Homo sapiens, UniProt Q32MK0)", "T20 construct": "purchased Eurofins/DiscoverX KINOMEscan scanMAX", "method": "as §1"}, "MST1": {"target": "T21, MST1 (Homo sapiens, UniProt Q13043)", "T21 construct": "purchased Eurofins/DiscoverX KINOMEscan scanMAX", "method": "as §1"}, "NEK4": {"target": "T22, NEK4 (Homo sapiens, UniProt P51957)", "T22 construct": "purchased Eurofins/DiscoverX KINOMEscan scanMAX", "method": "as §1"}, "OSR1": {"target": "T23, OSR1 (Homo sapiens, UniProt O95747)", "T23 construct": "purchased Eurofins/DiscoverX KINOMEscan scanMAX", "method": "as §1"}, "PAK6": {"target": "T24, PAK6 (Homo sapiens, UniProt Q9NQU5)", "T24 construct": "purchased Eurofins/DiscoverX KINOMEscan scanMAX", "method": "as §1"}, "PFTAIRE2": {"target": "T25, PFTAIRE2 (Homo sapiens, UniProt Q96Q40)", "T25 construct": "purchased Eurofins/DiscoverX KINOMEscan scanMAX", "method": "as §1"}, "PHKG2": {"target": "T26, PHKG2 (Homo sapiens, UniProt P15735)", "T26 construct": "purchased Eurofins/DiscoverX KINOMEscan scanMAX", "method": "as §1"}, "PIK3CA(E542K)": {"target": "T27, PIK3CA(E542K) (Homo sapiens, UniProt P42336, E542K)", "T27 construct": "purchased Eurofins/DiscoverX KINOMEscan scanMAX", "T27 sequence (P42336 whole entry E542K)": "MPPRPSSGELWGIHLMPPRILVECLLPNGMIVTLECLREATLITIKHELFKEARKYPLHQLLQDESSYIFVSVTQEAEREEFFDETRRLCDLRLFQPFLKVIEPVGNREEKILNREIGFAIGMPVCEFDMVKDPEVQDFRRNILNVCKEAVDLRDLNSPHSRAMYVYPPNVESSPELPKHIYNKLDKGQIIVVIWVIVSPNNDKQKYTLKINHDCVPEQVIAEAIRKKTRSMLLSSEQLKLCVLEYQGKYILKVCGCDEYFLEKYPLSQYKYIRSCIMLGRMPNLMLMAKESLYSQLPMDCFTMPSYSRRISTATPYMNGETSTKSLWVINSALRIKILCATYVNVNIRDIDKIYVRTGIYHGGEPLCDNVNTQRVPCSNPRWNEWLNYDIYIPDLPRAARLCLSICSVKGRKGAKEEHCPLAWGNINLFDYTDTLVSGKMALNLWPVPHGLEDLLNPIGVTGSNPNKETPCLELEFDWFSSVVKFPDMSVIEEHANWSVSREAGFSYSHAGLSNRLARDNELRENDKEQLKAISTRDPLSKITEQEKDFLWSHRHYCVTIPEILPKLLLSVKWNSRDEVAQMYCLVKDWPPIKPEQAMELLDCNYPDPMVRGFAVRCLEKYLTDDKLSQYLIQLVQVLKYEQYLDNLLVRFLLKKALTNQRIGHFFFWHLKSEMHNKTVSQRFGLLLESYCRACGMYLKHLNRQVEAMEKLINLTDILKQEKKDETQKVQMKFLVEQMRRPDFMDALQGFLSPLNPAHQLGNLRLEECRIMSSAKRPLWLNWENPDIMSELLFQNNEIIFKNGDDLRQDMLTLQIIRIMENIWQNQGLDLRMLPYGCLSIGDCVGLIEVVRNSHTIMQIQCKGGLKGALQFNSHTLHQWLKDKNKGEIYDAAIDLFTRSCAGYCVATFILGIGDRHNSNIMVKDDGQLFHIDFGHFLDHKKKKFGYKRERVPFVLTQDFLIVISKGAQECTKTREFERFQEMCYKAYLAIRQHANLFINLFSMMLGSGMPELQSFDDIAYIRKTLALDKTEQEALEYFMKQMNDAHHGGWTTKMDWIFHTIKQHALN", "method": "as §1"}, "PIP5K1A": {"target": "T28, PIP5K1A (Homo sapiens, UniProt Q99755)", "T28 construct": "purchased Eurofins/DiscoverX KINOMEscan scanMAX", "method": "as §1"}, "PRKCI": {"target": "T29, PRKCI (Homo sapiens, UniProt P41743)", "T29 construct": "purchased Eurofins/DiscoverX KINOMEscan scanMAX", "method": "as §1"}, "PYK2": {"target": "T30, PYK2 (Homo sapiens, UniProt Q14289)", "T30 construct": "purchased Eurofins/DiscoverX KINOMEscan scanMAX", "method": "as §1"}, "QSK": {"target": "T31, QSK (Homo sapiens, UniProt Q9Y2K2)", "T31 construct": "purchased Eurofins/DiscoverX KINOMEscan scanMAX", "method": "as §1"}, "RET": {"target": "T32, RET (Homo sapiens, UniProt P07949)", "T32 construct": "purchased Eurofins/DiscoverX KINOMEscan scanMAX", "method": "as §1"}, "[1]": {"target": "T33, RSK3(Kin.Dom.2-C-terminal) (Homo sapiens, UniProt Q15349)", "T33 construct": "RSK3(Kin.Dom.2-C-terminal); purchased Eurofins/DiscoverX KINOMEscan scanMAX", "T33 sequence (Q15349 415-672 limits assumed)": "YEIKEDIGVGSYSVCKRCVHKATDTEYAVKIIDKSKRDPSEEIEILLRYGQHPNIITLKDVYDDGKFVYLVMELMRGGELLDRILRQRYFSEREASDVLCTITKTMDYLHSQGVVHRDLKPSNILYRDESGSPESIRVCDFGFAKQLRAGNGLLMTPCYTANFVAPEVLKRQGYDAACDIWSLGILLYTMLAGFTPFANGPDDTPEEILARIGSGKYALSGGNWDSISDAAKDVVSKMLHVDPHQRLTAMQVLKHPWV", "method": "as §1"}, "SGK": {"target": "T34, SGK (Homo sapiens, UniProt O00141)", "T34 construct": "purchased Eurofins/DiscoverX KINOMEscan scanMAX", "method": "as §1"}, "SIK2": {"target": "T35, SIK2 (Homo sapiens, UniProt Q9H0K1)", "T35 construct": "purchased Eurofins/DiscoverX KINOMEscan scanMAX", "method": "as §1"}, "STK36": {"target": "T36, STK36 (Homo sapiens, UniProt Q9NRP7)", "T36 construct": "purchased Eurofins/DiscoverX KINOMEscan scanMAX", "method": "as §1"}, "SYK": {"target": "T37, SYK (Homo sapiens, UniProt P43405)", "T37 construct": "purchased Eurofins/DiscoverX KINOMEscan scanMAX", "method": "as §1"}, "TNK2": {"target": "T38, TNK2 (Homo sapiens, UniProt Q07912)", "T38 construct": "purchased Eurofins/DiscoverX KINOMEscan scanMAX", "method": "as §1"}, "WEE2": {"target": "T39, WEE2 (Homo sapiens, UniProt P0C1S8)", "T39 construct": "DNA tag (qPCR barcode); purchased Eurofins/DiscoverX KINOMEscan scanMAX", "method": "as §1"}, "WNK3": {"target": "T40, WNK3 (Homo sapiens, UniProt Q9BYP7)", "T40 construct": "DNA tag (qPCR barcode); purchased Eurofins/DiscoverX KINOMEscan scanMAX", "method": "as §1"}, "YANK1": {"target": "T41, YANK1 (Homo sapiens, UniProt Q8WU08)", "T41 construct": "DNA tag (qPCR barcode); purchased Eurofins/DiscoverX KINOMEscan scanMAX", "method": "as §1"}, "p38-alpha": {"target": "T42, p38-alpha (Homo sapiens, UniProt Q16539)", "T42 construct": "purchased Eurofins/DiscoverX KINOMEscan scanMAX", "method": "as §1"}, "p38-beta": {"target": "T43, p38-beta (Homo sapiens, UniProt Q15759)", "T43 construct": "purchased Eurofins/DiscoverX KINOMEscan scanMAX", "method": "as §1"}}, "data": [{"molecule": "CN1CCN(C2CCC(n3cc(-c4ccc(Oc5ccccc5)cc4)c4c(N)ncnc43)CC2)CC1", "note": "(stereo not shown) [A-419259]", "values": [{"measurement": "% Control", "setting": "AKT3", "result": 100, "unit": "%"}, {"measurement": "% Control", "setting": "BIKE", "result": 80, "unit": "%"}, {"measurement": "% Control", "setting": "BRAF", "result": 66, "unit": "%"}, {"measurement": "% Control", "setting": "CIT", "result": 79, "unit": "%"}, {"measurement": "% Control", "setting": "CTK", "result": 89, "unit": "%"}, {"measurement": "% Control", "setting": "DCAMKL3", "result": 100, "unit": "%"}, {"measurement": "% Control", "setting": "DYRK1B", "result": 21, "unit": "%"}, {"measurement": "% Control", "setting": "EPHB2", "result": 100, "unit": "%"}, {"measurement": "% Control", "setting": "ERBB2", "result": 2.7, "unit": "%"}, {"measurement": "% Control", "setting": "FGFR1", "result": 1.6, "unit": "%"}, {"measurement": "% Control", "setting": "FLT3(N841I)", "result": 5.3, "unit": "%"}, {"measurement": "% Control", "setting": "FLT4", "result": 19, "unit": "%"}, {"measurement": "% Control", "setting": "IKK-beta", "result": 90, "unit": "%"}, {"measurement": "% Control", "setting": "IKK-epsilon", "result": 100, "unit": "%"}, {"measurement": "% Control", "setting": "ITK", "result": 14, "unit": "%"}, {"measurement": "% Control", "setting": "KIT", "result": 0.15, "unit": "%"}, {"measurement": "% Control", "setting": "LATS2", "result": 18, "unit": "%"}, {"measurement": "% Control", "setting": "MAP3K2", "result": 1.7, "unit": "%"}, {"measurement": "% Control", "setting": "MKNK2", "result": 8.3, "unit": "%"}, {"measurement": "% Control", "setting": "MLCK", "result": 66, "unit": "%"}, {"measurement": "% Control", "setting": "MST1", "result": 34, "unit": "%"}, {"measurement": "% Control", "setting": "NEK4", "result": 100, "unit": "%"}, {"measurement": "% Control", "setting": "OSR1", "result": 100, "unit": "%"}, {"measurement": "% Control", "setting": "PAK6", "result": 84, "unit": "%"}, {"measurement": "% Control", "setting": "PFTAIRE2", "result": 89, "unit": "%"}, {"measurement": "% Control", "setting": "PHKG2", "result": 100, "unit": "%"}, {"measurement": "% Control", "setting": "PIK3CA(E542K)", "result": 85, "unit": "%"}, {"measurement": "% Control", "setting": "PIP5K1A", "result": 100, "unit": "%"}, {"measurement": "% Control", "setting": "PRKCI", "result": 26, "unit": "%"}, {"measurement": "% Control", "setting": "PYK2", "result": 88, "unit": "%"}, {"measurement": "% Control", "setting": "QSK", "result": 93, "unit": "%"}, {"measurement": "% Control", "setting": "RET", "result": 0, "unit": "%"}, {"measurement": "% Control", "setting": "[1]", "result": 100, "unit": "%"}, {"measurement": "% Control", "setting": "SGK", "result": 75, "unit": "%"}, {"measurement": "% Control", "setting": "SIK2", "result": 19, "unit": "%"}, {"measurement": "% Control", "setting": "STK36", "result": 18, "unit": "%"}, {"measurement": "% Control", "setting": "SYK", "result": 100, "unit": "%"}, {"measurement": "% Control", "setting": "TNK2", "result": 1.1, "unit": "%"}, {"measurement": "% Control", "setting": "WEE2", "result": 90, "unit": "%"}, {"measurement": "% Control", "setting": "WNK3", "result": 46, "unit": "%"}, {"measurement": "% Control", "setting": "YANK1", "result": 30, "unit": "%"}, {"measurement": "% Control", "setting": "p38-alpha", "result": 100, "unit": "%"}, {"measurement": "% Control", "setting": "p38-beta", "result": 100, "unit": "%"}]}]}
